Laboratory results published in patent US20230310418A1, “COMPOSITIONS AND METHODS FOR TREATING CANCER OR PREVENTING, INHIBITING OR REDUCING RISK OF METASTASIS OF A CANCER” (Lixte Biotechnology, Inc., priority 2022, published 2023).
“Also recorded” adds a separate entry of the source. Where two headings read alike, the source gives them in different places.

Experiments:
[1] = tested on: mitogenic signaling pathways and stress response pathways; assay: Time-course Western blots; type: cell-based; conditions: DiFi, HT-29 and SW-480 cells; vinculin control (FIG. 1C-1E)
Experimental: After the indicated culture period and drug treatment, cells were washed with cold PBS, then lysed with RIPA buffer (25 mM Tris-HCl, pH 7.6, 150 mM NaCl, 1% NP-40, 1% sodium deoxycholate, 0.1% SDS) containing Complete Protease Inhibitor cocktail and phosphatase inhibitor cocktails II and III. Samples were then centrifuged for 10 min at 15,000 x g at 4° C. and supernatant was collected. Protein concentration of the samples was normalized after performing a Bicinchoninic Acid (BCA) assay. Protein samples (denatured with DTT followed by 5 min heating at 95° C.) were then loaded in a 4-12% polyacrylamide gel. Gels were run (SDS-PAGE) for approximately 45 min at 175 volts. Proteins were transferred from the gel to a polyvinylidene fluoride (PVDF) membrane at 330 mA for 90 min. After the transfer, membranes were incubated in blocking solution (5% bovine serum albumin (BSA) in PBS with 0.1% Tween-20 (PBS-T)). Subsequently, membranes were probed with primary antibody in blocking solution (1:1000) overnight at 4° C. Membranes were then washed 3 times for 10 min with PBS-T, followed by 1 h incubation at room temperature with the secondary antibody (HRP conjugated, 1:10,000) in blocking solution. […]
(§1) Then the cell viability was measured using resazurin.

[2] = tested on: colorectal cancer cell lines; assay: cells
Experimental: Drug-response assays were performed in triplicate, using black-walled 384-well plates. Cells were plated with a 20% density (approximately) and incubated for approximately 24 hours to allow attachment to the plate. […] 10 µM phenylarsine oxide was used as positive control (0% cell viability) and DMSO was used as negative control (100% cell viability). 3-5 days later, culture medium was removed and resazurin was added to the plates. After 1-4 hours incubation (depending on the cell line), fluorescence (560Ex/590Em) was recorded using the EnVision (Perkin Elmer).
The effect of increasing doses of LB-100 to the Table 1 cell lines, both in short-term cell viability assays (FIG. 1A) and long-term cell proliferation assays (FIG. 1B), was analyzed. For the short-term study, cells were cultured with increasing concentrations of LB-100 for 5 days. Then the cell viability was measured using resazurin.
Adavosertib was used as the WEE1 kinase inhibitor to investigate the effect of the combination with LB-100 in the panel of CRC cells. […] Toxicity of the combination in long-term viability assays was assessed. The cells were cultured for at least ten days and the drugs were refreshed every other day. The toxicity of the single drugs in this experimental setup was assessed. […] Cells were then treated at the indicated conditions and confluence over time was measured by IncuCyte®, FIG. 3D).

[3] = tested on: cholangiocarcinoma (CCA) cell lines; assay: Short-term cell viability dose-response assay (resazurin); type: cell-based; conditions: 120 h, read-out: IC50s from dose-response curves
Description: (§2) The efficacy of the LB-100/adavosertib combination in the CRC cell lines encouraged further evaluation in other tumor types lacking effective treatment options. Pancreatic ductal adenocarcinomas (PDACs) are refractory to conventional therapies and the 5-year survival rates remain one of the lowest among all cancers. Similarly, despite a much lower overall incidence, cholangiocarcinomas (CCAs) share with PDACs the frequent lack of response to conventional therapies and the dismal prognosis. A panel of four PDAC cell lines and a similar one with CCA cells were assembled to assess the efficacy of LB-100 and adavosertib in these cancer types. […] To investigate the effects of the combination in the PDAC and CCA cancer cell lines systematically, the same experimental workflow used for the CRC panel was employed. First, the long-term toxicity of LB-100 and adavosertib was addressed in the PDAC and CAA cell lines (FIG. 5D and FIG. 8C). […] As observed for DiFi and RKO, the doses of adavosertib used in the synergy assays are already toxic to AspC-1, EGI, and HuCC-T1 cells (FIG. 5C, FIG. 8A, and FIG. 8B).

[4] = tested on: pancreatic ductal adenocarcinoma (PDAC) cell lines; assay: as above; type: cell-based; conditions: 120 h, read-out: IC50s from dose-response curves
Description: as §2

[5] = tested on: colorectal cancer cell lines; type: cell-based; conditions: for toxicity when combined with LB-100, long-term cell proliferation: SW-480 cells, multiple concentrations, 10-14 days (FIG. 2F)
Experimental: Finally, plates were scanned and stored.
as §1

HT-29 cells = assay: Stress-focused drug screen of 164 compounds with or without LB-100; type: cell-based; conditions: 2.5 µM LB-100 (sub-lethal); cell viability after three days (FIG. 2C)
Description: These compounds were investigated in 15 different concentrations using a literature-based concentration range in order to obtain dose-response curves for each of these drugs.

SW-480 cells = assay: as above; type: cell-based; conditions: 2.5 µM LB-100 (sub-lethal); cell viability after three days; 15 concentrations (FIG. 2B)
Description: (§3) To identify stress-targeted drugs that can be combined with LB-100 to kill cancer cells, a library of 164 compounds was built targeting the different stress responses associated with a malignant phenotype (i.e., proteotoxic stress, oxidative stress, DNA damage stress, mitotic stress, metabolic stress, and apoptosis evasion). These compounds were investigated in 15 different concentrations using a literature-based concentration range in order to obtain dose-response curves for each of these drugs.

[6] = tested on: RBE cholangiocarcinoma cells; assay: as above; type: cell-based; conditions: stress-focused screen with LB-100 vs control (FIG. 5A)
Description: as §3

## CN1CCN(C(=O)[C@@H]2[C@H](C(=O)O)[C@H]3CC[C@@H]2O3)CC1 (racemic) [LB-100]
[1]
  activation of mitogenic signaling and stress response pathways: activates mitogenic signaling pathways and engages stress response pathways
[2]
  cytotoxicity, short-term cell viability: moderate toxicity in the lower micro molar range
[3]
  IC50: ≥ 4700 nM
[4]
  IC50: ≥ 3200 nM
[5]
  cytotoxicity, long-term cell proliferation: moderate toxicity in the lower micro molar range

## N#Cc1cnc(Nc2cc(NC[C@H]3CNCCO3)c(C(F)(F)F)cn2)cn1 [CCT-245737]
HT-29 cells
  toxicity in the presence of LB-100 vs control (normalized AUC): increased toxicity

## CN(C)CC#Cc1ccc(OCCCc2sc(N3CCc4cccc(C(=O)Nc5nc6ccccc6s5)c4C3)nc2C(=O)O)c(F)c1 [Compound A-1155463]
SW-480 cells
  toxicity in the presence of LB-100 vs control (normalized AUC): increased in the presence of LB-100
[5]
  toxicity when combined with LB-100, long-term cell proliferation: increased toxicity

## N[C@@H]1CCCN(c2c(Br)cnc3[nH]cc(NC(=O)C4CC4)c23)C1 [GDC-0575]
[6]
  increased drug efficacy in the presence of LB-100 (normalized AUC): among the top 5% in increased drug efficacy
SW-480 cells
  toxicity in the presence of LB-100 vs control (normalized AUC): among the bottom 5% normalized AUCs
HT-29 cells
  toxicity in the presence of LB-100 vs control (normalized AUC): LB-100 increased the toxicity

## CCN(CC)CCOc1ccc(Nc2ncc3cc(-c4c(Cl)cccc4Cl)c(=O)n(C)c3n2)cc1 [PD0166285]
SW-480 cells
  toxicity in the presence of LB-100 vs control (normalized AUC): among the bottom 5% normalized AUCs

## Cn1cc(-c2cnn3c(N)c(Br)c([C@@H]4CCCNC4)nc23)cn1 [SCH-900776]
[6]
  increased drug efficacy in the presence of LB-100 (normalized AUC): among the top 5% in increased drug efficacy
HT-29 cells
  toxicity in the presence of LB-100 vs control (normalized AUC): increased toxicity

## C=CCn1c(=O)c2cnc(Nc3ccc(N4CCN(C)CC4)cc3)nc2n1-c1cccc(C(C)(C)O)n1 [adavosertib]
[6]
  increased drug efficacy in the presence of LB-100 (normalized AUC): among the top 5% in increased drug efficacy
SW-480 cells
  toxicity in the presence of LB-100 vs control (normalized AUC): among the bottom 5% normalized AUCs
[2]; 120 h, read-out: IC50s from dose-response curves
  IC50: 180 to 1000 nM
HT-29 cells
  toxicity in the presence of LB-100 vs control (normalized AUC): LB-100 increased the toxicity
[3]; range across CCA cell lines, 5 days, resazurin (FIG. 5C)
  IC50: 100 to 370 nM
[4]; range across four PDAC cell lines, 5 days, resazurin (FIG. 8A, 8B)
  IC50: 300 to 1700 nM
[5]; DLD1, HCT-116 and SW-480 cells (FIG. 3C)
  tolerance to single drug, long-term viability: largely tolerant to up to 500 nM
[5]
  toxicity when combined with LB-100, long-term cell proliferation: increased toxicity

## CNCc1ccc(-c2cc(-c3nc(-c4ccc(S(=O)(=O)C(C)C)cc4)cnc3N)on2)cc1 [berzosertib]
[6]
  increased drug efficacy in the presence of LB-100 (normalized AUC): among the top 5% in increased drug efficacy

## CC1(C)CCC(c2ccc(Cl)cc2)=C(CN2CCN(c3ccc(C(=O)NS(=O)(=O)c4ccc(N[C@H](CCN5CCOCC5)CSc5ccccc5)c(S(=O)(=O)C(F)(F)F)c4)cc3)CC2)C1 [navitoclax]
SW-480 cells
  toxicity in the presence of LB-100 vs control (normalized AUC): increased in the presence of LB-100

## COc1cccc(OCCCN)c1-c1cc(Nc2cnc(C#N)cn2)n[nH]1 [prexasertib]
[6]
  increased drug efficacy in the presence of LB-100 (normalized AUC): among the top 5% in increased drug efficacy
SW-480 cells
  toxicity in the presence of LB-100 vs control (normalized AUC): among the bottom 5% normalized AUCs; also recorded: increased toxicity
[5]
  toxicity when combined with LB-100, long-term cell proliferation: increased toxicity

## Cc1cnc(NC(=O)Nc2cc(Br)c(C)cc2OC[C@@H]2CNCCO2)cn1 [rabusertib]
[6]
  increased drug efficacy in the presence of LB-100 (normalized AUC): among the top 5% in increased drug efficacy
SW-480 cells
  toxicity in the presence of LB-100 vs control (normalized AUC): among the bottom 5% normalized AUCs; also recorded: increased toxicity
